Laboratory results from patent US9707239B2, “Compounds that modulate oxidative stress” (vTv Therapeutics LLC, priority 2011, dated 2017).
“Also recorded” adds a separate entry of the source.

How the values were obtained:
HMOX1 = experiment: mRNA expression (Quantigene Plex) in NHLF cells: HMOX1; type: cell-based, human; conditions: mRNA normalized to GAPDH, above DMSO treated cells
Protocol: (§1) Secondary growth of NHLF cells were used for all assays. Cell were thawed and then placed into culture in T225 flasks. The cells were grown to 80% confluency and harvested by washing once with HEPES buffered saline solution and then trypsinizing. Equal numbers (7×10^3 cells per well) of NHLF cells were plated in 96 well tissue culture plates (Corning). Cells were incubated overnight in FGM-2 medium prior to exposure to compound. Cells were treated with either DMSO or a compound as described below for 6 h. Preparation of cell lysates was carried out according to instructions using the Quantigene Reagent system 2.0 protocol (Panomics). mRNA induction was detected from cell lysate using the Quantigene Plex 2.0 Assay Kit (Panomics) on the Luminex platform (BIO-RAD). Expression of GAPDH mRNA was used as the internal control for the Quantigen Plex 2.0 Assay. The data in Tables 5 and 6 represents the fold change of target mRNA expression, normalized to control values, above DMSO treated cells.

NQO1 = experiment: mRNA expression (Quantigene Plex) in NHLF cells: NQO1; type: cell-based, human; conditions: mRNA normalized to GAPDH, above DMSO treated cells
Protocol: as §1

TXNRD1 = experiment: mRNA expression (Quantigene Plex) in NHLF cells: TXNRD1; type: cell-based, human; conditions: mRNA normalized to GAPDH, above DMSO treated cells
Protocol: as §1

HSPA6 = experiment: mRNA expression (Quantigene Plex) in NHLF cells: HSPA6; type: cell-based, human; conditions: mRNA normalized to GAPDH, above DMSO treated cells
Protocol: as §1

ICAM = experiment: mRNA expression (Quantigene Plex) in NHLF cells: ICAM; type: cell-based, human; conditions: mRNA normalized to GAPDH, above DMSO treated cells
Protocol: as §1

ATF4 = experiment: mRNA expression (Quantigene Plex) in NHLF cells: ATF4; type: cell-based, human; conditions: Table 5, 6 h, mRNA normalized to GAPDH, above DMSO treated cells
Protocol: as §1

GADD45A = experiment: mRNA expression (Quantigene Plex) in NHLF cells: GADD45A; type: cell-based, human; conditions: mRNA normalized to GAPDH, above DMSO treated cells
Protocol: as §1

NHLF cells [1] = experiment: ROS measurements (H2DCF-DA imaging); type: cell-based, human; conditions: 1 hr, cell-by-cell imaging, FIG. 3A/3B
Protocol: Secondary growth of NHLF cells were used for all assays. Cells were cultured as above. Cells were plated into 384-well BD-Optilux Plates at 2,000 cells/well and cultured overnight at 37° C. and 5% CO2. The following day, cell were washed and 2,7-dihydrodichlorofluorescin diacetate (H2DCF-DA), 10 μM ferric ammonium citrate (FAC), and Hoechst stain were added to cells for 30 min. The cells were washed once with PBS to remove any H2DCF-DA not taken up by cells. Test compounds were prepared in FBM-2 media at the desired concentrations. The plates and stain-treated cells were incubated with test compounds for 1 hr at 37° C. and 5% CO2. Following the incubation period, ROS generation was determined by imaging the cells on a GE INcell 1000 imager (Hoechst Ex. 360 Em. 535; H2DCF-DA 488 Ex. 480 Em. 535). ROS levels were determined and quantified using GE IN Cell Analyzer Software.
In addition to gene profiling, the requirement for ROS generation or chemical reactivity was tested. ROS generation was measured using an automated imaging technique. Compound 13 as well as two other compounds that were found in the screening set were tested in this experiment. Untreated NHLF cells, NHLF cells treated with the HMOX1 inducer CoPP (a negative control), and NHLF cells treated with curcumin or celestrol (positive controls) were included as controls. […] Further experiments were also conducted on chemical derivatives of Compound 13. In those experiments, all compounds tested were found not to induce an elevation of ROS levels in the cell (FIG. 3B). Thus, Compound 13 and related compounds represent a class of agents that elevate HMOX1 production without elevating ROS production.

Keap1 = experiment: HMOX1 induction after Keap1 silencing (shRNA); type: cell-based, human; conditions: NHLF cells, FIG. 6
Protocol: Normal human lung fibroblasts were plated in a 12-well tissue culture dish at 16,000 cells/well and allowed to attach overnight. Regular medium was then replaced with 200 μl of fresh growth medium containing 8 μg/ml hexadimethrine bromide (polybrene). Lentiviral transduction particles were then added in the following amounts: Control shRNA (1.1×10^7 TU/ml, Sigma, cat# SHC002V), 15 μl for an MOI of 10; KEAP-1 shRNA (6.3×10^6 TU/ml, Sigma, cat# SHCLNV-TRCN0000046092), 63 μl for an MOI of 20. After 4 hours in the cell culture incubator, another 200 μl of growth medium was added on top of the original volume. Cells were replenished the next day with fresh complete growth medium and were allowed to recover for 24 hours, after which selection medium was applied (complete medium with 1 μg/ml puromycin).
Another method of testing the role of the Nrf2 regulatory pathway on compound activity is to determine the effect of silencing Keap1 on HMOX1 gene expression. It is known that deleting Keap1 will result in the induction of Nrf2 dependent genes but not, to any significant degree, HMOX1. The proposed explanation for this observation is that HMOX1 requires the concomitant derepression of Bach1 activity and that this event is more dependent on active processes (e.g., heme binding, changes in redox potential of the cell, phosphorylation of Bach1, etc.). We therefore tested the ability of Compound 13 and tool compounds to induce HMOX1 in the presence of silencing of Keap1 in normal human lung fibroblasts.
Normal human lung fibroblasts were tested with DMSO, CoPP, Compound 13, and two derivatives including Compound 4 and Compound 8. An electrophile, Compound 1, was also included in the test set. […] On the other hand, induction of HMOX1 by the electrophile Compound 1 was inhibited.

human Bach1 = experiment: MARE controlled luciferase reporter gene assay in HepG2 cells with or without Bach1 expression; type: cell-based; conditions: transient transfection, with or without Bach1 expressing plasmid, FIG. 7
Protocol: The ability of Compound 13 to act in a manner similar to CoPP provides evidence for the hypothesis that Bach1 activity is being modulated by the compounds. […] To that end, expression vectors were prepared which contained the HMOX1 mARE promoter element recognized by both Bach1 and Nrf2. This element was placed in control of the reporter gene luciferase. Under conditions of transient transfection of HepG2 cells, the reporter has a low level of basal activity due to the relative ratio of Bach1 and Nrf2 found in the cell. Co-transfection with a Bach1 expressing plasmid leads to repression of luciferase activity. Therefore, one can test whether the compounds can increase the level of luciferase in the cells, thus overcoming Bach1 repression. […] Thus, the tested compound is able to overcome suppression by additional Bach1.

NHLF cells [2] = experiment: Cytoprotection of cisplatin (CDDP)-treated NHLF cells (propidium iodide staining); type: cell-based; conditions: NHLF cells, compound 24 hours prior to cisplatin exposure, FIG. 8
Protocol: A key outcome of Bach1 derepression and Nrf2 activation are the induction of cytoprotective genes. A method to test such cytoprotection is to assess the ability of a compound to protect normal human cells such as lung fibroblasts from toxicity due to cisplatin exposure. A model of cellular cytoprotection was established whereby normal human lung fibroblasts were treated with Bach1 modulators and then subsequently exposed to cisplatin. NHLF cells are very sensitive to cisplatin exposure; following a dose of 200 uM cisplatin, >90% of NHLF cells are propidium iodide positive, a measure of cell death.

[3] = Compound levels in rat blood after oral gavage (LC-MS); type: in vivo; conditions: rats
Protocol: (§2) Next, selected Bach1 modulators were tested for in vivo function. […] Rats were dosed with 5 mg/kg of compound by oral gavage. Compound levels in blood were determined by LC-MS (left panel). […] In a second experiment, Compound 8 activity was tested by determining the amount of HMOX1 mRNA induced in rat blood. Animals were dosed by oral gavage and blood drawn at the indicated times.

rat HMOX1 mRNA = experiment: HMOX1 mRNA induction in rat blood after oral gavage; type: in vivo; conditions: rats, oral gavage 5 or 25 mg/kg, over 5 hours, FIG. 11B
Protocol: as §2

Structure (SMILES) | HMOX1 (fold induction) (HMOX1; Table 5, 6 h) | HMOX1 (fold induction) (HMOX1; Table 6, 6 h) | NQO1 (fold induction) (NQO1; Table 5, 6 h) | NQO1 (fold induction) (NQO1; Table 6, 6 h) | TXNRD1 (fold induction) (TXNRD1; Table 5, 6 h) | TXNRD1 (fold induction) (TXNRD1; Table 6, 6 h) | HSPA6 (fold induction) (HSPA6; Table 5, 6 h) | HSPA6 (fold induction) (HSPA6; Table 6, 6 h) | ICAM (fold induction) (ICAM; Table 5, 6 h) | ICAM1 (fold induction) (ICAM; Table 6, 6 h) | ATF4 (fold induction) (ATF4) | GADD45A (fold induction) (GADD45A; Table 5, 6 h) | GADD45A (fold induction) (GADD45A; Table 6, 6 h) | ROS production (in words) (NHLF cells [1]) | HMOX1 induction in the presence of Keap1 silencing (Keap1) | luciferase activity of HMOX1 mARE reporter (human Bach1) | protection against cisplatin toxicity (NHLF cells [2]) | compound levels in blood ([3]; 5 mg/kg (legend: 5 or 25 mg/kg) oral gavage, LC-MS, FIG. 11A) | oral bioavailability ([3]; oral gavage, FIG. 11) | HMOX1 mRNA induced in rat blood (rat HMOX1 mRNA)
C=Cc1c(C)c2cc3[nH]c(cc4nc(cc5nc(cc1[nH]2)C(C)=C5CCC(=O)[O-])C(CCC(=O)[O-])=C4C)c(C)c3C=C.[Co+2] [CoPP, Cobalt protoporphyrin IX, reference compound] | 48 | 49.64 | 3.5 | 4.22 | 2.7 | 2.39 | 0.9 | 0.86 | 1.1 | 0.56 | 0.85 | 1.02 | 1.18 | did not | unaffected in their ability to induce HMOX1 in the presence of Keap1 silencing | able to induce luciferase activity in the presence or absence of Bach1 protein expression; also recorded: can overcome this repression | protect the cells from CDDP-mediated toxicity | – | – | –
COCCNC(=O)c1ccc2c(c1)nc(Nc1nc3ccc(OC(F)(F)F)cc3s1)n2C [Compound 8, 1-Methyl-2-(6-trifluoromethoxy-benzothiazol-2-ylamino)-1H-benzoimidazole-5-carboxylic acid (2-methoxy-ethyl)-amide] | – | – | – | – | – | – | – | – | – | – | – | – | – | – | unaffected in their ability to induce HMOX1 in the presence of Keap1 silencing; also recorded: behaves similarly to CoPP induction | – | – | micromolar levels; also recorded: present in blood sample following oral dosing | orally bioavailable | able to induce HMOX1 mRNA in rat blood in a time and dose-dependent manner; also recorded: dose-dependent induction of rat HMOX1 mRNA in blood samples
